From US20260097083A1, “METHOD FOR PRODUCING PANCREATIC ENDODERM CELLS” (Kyoto University, priority 2022, published 2026)
Structures can show the parent of a compound that is named as a salt.

Assays:
[1] = tested on: PDX1+/NKX6.1+ pancreatic endoderm cells derived from human iPS cells; assay: Examination of other ROCK inhibitors for proliferating pancreatic endoderm cells; format: cell-based; settings: 1 week, FIGS. 3-B and 3-C
Experimental: FIG. 3-A A schematic diagram illustrating an experiment of examining other ROCK inhibitors. […] After the elapse of one week, the cells were counted under a fluorescence microscope.
Cells were differentiated to a pancreatic endoderm cell level using a stepwise differentiation-inducing method, and were then re-seeded on a 24-well plate at 2×10^5/well. The following culture media were added to these cultured cells, and the cells were cultured for 1 week. The culture medium for the Control group was improved MEM to which 0.5×B-27 Supplement, 100 U/ml penicillin/streptomycin, 100 ng/ml KGF/FGF7, 50 ng/ml EGF, and 10 mM nicotinamide had been added. […] After fixed using 4% PFA, the cells were subjected to β-gal staining and NKX6.1 antibody immunostaining, and fluorescently stained images were acquired using BZ-800 (Keyence). The number of NKX6.1-positive cells, the NKX6.1-positive ratio, and the β-gal-positive ratio were calculated using the BZ-H4CM/Macro Cell Count function of that microscope. FIGS. 2-A and 3-A show the outline of this procedure.
The experiments were conducted in the same manner as in Example 1. FIGS. 3-B and 3-C show the results.

[2] = tested on: pancreatic endoderm cells (NKX6.1-positive); settings: added to medium containing Y-27632 50 μM, 6 days, FIG. 7
Experimental: The cells on Day 21 of expansion culture were cultured for 6 days using a culture medium obtained by adding various growth factors and small-molecule compounds to a culture medium for expansion culture containing Y-27632. The other conditions were the same as those of the screening of senescence-related reagents.
After passaged three times using a culture medium to which Y-27632 (50 μM) had been added, pancreatic endoderm cells were seeded on a 24-well plate coated with iMatrix at 2.0×10^5 cells/well. Each of screening reagents was added to the culture medium containing Y-27632 (50 μM), and then the cells were cultured. After 6 days, the ratio of NKX6.1-positive cells was checked through cell immunostaining.

[3] = tested on: NKX6.1-positive pancreatic endoderm cells derived from human iPS cells; assay: Screening of senescence-related reagents; format: cell-based
Experimental: FIG. 2-A A schematic diagram illustrating senescence-related reagent screening. […] After the elapse of one week, the cells were counted under a fluorescence microscope. Cells were differentiated to a pancreatic endoderm cell level using a stepwise differentiation-inducing method, and were then re-seeded on a 24-well plate at 2×10^5/well. The following culture media were added to these cultured cells, and the cells were cultured for 1 week. […] After fixed using 4% PFA, the cells were subjected to β-gal staining and NKX6.1 antibody immunostaining, and fluorescently stained images were acquired using BZ-800 (Keyence). The number of NKX6.1-positive cells, the NKX6.1-positive ratio, and the β-gal-positive ratio were calculated using the BZ-[…]/Macro Cell Count function of that microscope. FIGS. 2-A and 3-A show the outline of this procedure. A reagent enabling proliferation of pancreatic endoderm cells derived from human iPS cells was searched for in the senescence-related reagents. […] Then, (1) the number of NKX6.1-positive cells, or (2) the ratio of NKX6.1-positive cells and the ratio of β gal-positive cells were measured after the culture. FIGS. 2-B to 2-D show the results.

SMILES	effect of proliferating pancreatic endoderm cells (total cells, NKX6.1-positive cells) [1]	also measured
CCn1c(-c2nonc2N)nc2cnc(Oc3cccc(NC(=O)c4ccc(OCCN5CCOCC5)cc4)c3)cc21 [GSK269962]	exhibited the effect of proliferating pancreatic endoderm cells	–
O=C(NCc1ccccc1)c1csc(Nc2ccncn2)n1 [Thiazovivin]	exhibited the effect of proliferating pancreatic endoderm cells	–
CC1=C(C(=O)Nc2cc3cn[nH]c3cc2F)C(c2ccc(C(F)(F)F)cc2)CC(=O)N1 (centres unmarked) [GSK429286A]	exhibited the effect of proliferating pancreatic endoderm cells	–
Cc1cccc(-c2n[nH]cc2-c2ccc3ncccc3n2)n1 [ALK5 inhibitor, 2-[3-[6-methylpyridin-2-yl]-1H-pyrazol-4-yl]-1,5-naphthyridine]	–	ratio of NKX6.1-positive cells (screening outcome) [2]: identified as candidates for a factor for improving expansion culture
O=S(=O)(c1cccc2cnccc12)N1CCCNCC1 [Fasudil hydrochloride]	exhibited the effect of proliferating pancreatic endoderm cells	–
Cc1cncc2cccc(S(=O)(=O)N3CCCNC[C@@H]3C)c12 [H1152]	exhibited the effect of proliferating pancreatic endoderm cells	–
CC1(C)CCC(c2ccc(Cl)cc2)=C(CN2CCN(c3ccc(C(=O)NS(=O)(=O)c4ccc(N[C@H](CCN5CCOCC5)CSc5ccccc5)c(S(=O)(=O)C(F)(F)F)c4)cc3)CC2)C1 [ABT263]	–	ratio of β gal-positive cells (senescent cells) ([3]; 1 week, FIG. 2-D): reduction in the ratio of β gal-positive cells; cause inferred for the reduction in β gal-positive ratio ([3]; inferred from FIG. 2-B and 2-D): toxicity
